Experimental findings from patent publication US9770023B2, “Active compound combinations comprising phenylamidine compounds and further fungicides” (BAYER CROPSCIENCE AKTIENGESELLSCHAFT, priority 2014, dated 2017) are described below.

Each structure is given as a SMILES string.

The test system of one test is Leptosphaeria nodorum. Nature of the test: in vivo preventive Leptosphaeria nodorum test (wheat). Particulars: Table C1, 8 days after inoculation, 80 ppm a.i. On the procedure:
(§1) [table] To produce a suitable preparation of active compound, 1 part by weight of active compound or active compound combination is mixed with the stated amounts of solvent and emulsifier, and the concentrate is diluted with water to the desired concentration. To test for preventive activity, young plants are sprayed with the preparation of active compound or active compound combination at the stated rate of application. After the spray coating has been dried, the plants are sprayed with a spore suspension of Leptosphaeria nodorum. The plants remain for 48 hours in an incubation cabinet at approximately 20° C. and a relative atmospheric humidity of approximately 100%. The plants are placed in the greenhouse at a temperature of approximately 25° C. and a relative atmospheric humidity of approximately 80%. The test is evaluated 8 days after the inoculation. 0% means an efficacy which corresponds to that of the untreated control, while an efficacy of 100% means that no disease is observed.

The test system of the next test is Puccinia triticina. As to the kind of experiment: in vivo preventive Puccinia triticina test (wheat). Conditions: Table E1, 8 days after inoculation, 40 ppm a.i. On the procedure: To produce a suitable preparation of active compound, 1 part by weight of active compound or active compound combination is mixed with the stated amounts of solvent and emulsifier, and the concentrate is diluted with water to the desired concentration.
To test for preventive activity, young plants are sprayed with the preparation of active compound or active compound combination at the stated rate of application. After the spray coating has been dried, the plants are sprayed with a spore suspension of Puccinia triticina. The plants remain for 48 hours in an incubation cabinet at approximately 20° C. and a relative atmospheric humidity of approximately 100%. The plants are placed in the greenhouse at a temperature of approximately 20° C. and a relative atmospheric humidity of approximately 80%.
The test is evaluated 8 days after the inoculation. 0% means an efficacy which corresponds to that of the untreated control, while an efficacy of 100% means that no disease is observed.

A further test deals with Phakopsora pachyrhizi. As to the kind of experiment: in vivo preventive test on Phakopsora test (soybeans). On the procedure:
To produce a suitable preparation of active compound, 1 part by weight of active compound is mixed with the stated amounts of solvent and emulsifier, and the concentrate is diluted with water to the desired concentration. To test for preventive activity, young plants are sprayed with the preparation of active compound at the stated rate of application. After the spray coating has dried on, the plants are inoculated with an aqueous spore suspension of the causal agent of soybean rust (Phakopsora pachyrhizi) and stay for 24 h without light in an incubation cabinet at approximately 24° C. and a relative atmospheric humidity of 95%. The plants remain in the incubation cabinet at approximately 24° C. and a relative atmospheric humidity of approximately 80% and a day/night interval of 12 h.
The test is evaluated 7 days after the inoculation. 0% means an efficacy which corresponds to that of the untreated control, while an efficacy of 100% means that no disease is observed.

Test [1] deals with Blumeria graminis f.sp. hordei. Nature of the test: in vivo preventive Blumeria test (barley). On the procedure:
[table] To produce a suitable preparation of active compound, 1 part by weight of active compound or active compound combination is mixed with the stated amounts of solvent and emulsifier, and the concentrate is diluted with water to the desired concentration. To test for preventive activity, young plants are sprayed with the preparation of active compound or active compound combination at the stated rate of application. After the spray coating has been dried, the plants are dusted with spores of Blumeria graminis f.sp. hordei. The plants are placed in the greenhouse at a temperature of approximately 18° C. and a relative atmospheric humidity of approximately 80% to promote the development of mildew pustules. The test is evaluated 7 days after the inoculation. 0% means an efficacy which corresponds to that of the untreated control, while an efficacy of 100% means that no disease is observed.

Another test concerns Pyrenophora teres. Nature of the test: in vivo preventive Pyrenophora teres test (barley). Conditions: Table F1, 8 days after inoculation, 80 ppm a.i. How it is done: as §1, with “Pyrenophora teres.” for “Leptosphaeria nodorum.”, “20°” for “25°”
A further test relates to Alternaria solani. As to the kind of experiment: in vivo preventive test on Alternaria test (tomatoes). On the procedure: [table] To produce a suitable preparation of active compound, 1 part by weight of active compound is mixed with the stated amounts of solvent and emulsifier, and the concentrate is diluted with water to the desired concentration. To test for preventive activity, young plants are sprayed with the preparation of active compound at the stated rate of application. After the spray coating has dried on, the plants are inoculated with an aqueous spore suspension of Alternaria solani. The plants are then placed in an incubation cabinet at approximately 20° C. and a relative atmospheric humidity of 100%. The test is evaluated 3 days after the inoculation. 0% means an efficacy which corresponds to that of the untreated control while an efficacy of 100% means that no disease is observed.

In another test the test system is Septoria tritici. As to the kind of experiment: in vivo preventive Septoria tritici test (wheat). How it is done: as §1, with “suspension of Septoria tritici. The plants” for “suspension of Leptosphaeria nodorum. The plants”, “of approximately 100% and afterwards for 60 hours at approximately 15° C. in a translucent incubation cabinet at a relative atmospheric humidity of approximately 100%. The” for “of approximately 100%. The”, “of approximately 15° C. and” for “of approximately 25° C. and”, “is evaluated 21 days after” for “is evaluated 8 days after”

With `CCN(C)/C=N/c1cc(C)c(Oc2ccccc2)cc1C` [(I-d), N′-(2,5-dimethyl-4-phenoxyphenyl)-N-ethyl-N-methylimidoformamide], the “Efficacy in % found” value in the test on Leptosphaeria nodorum amounted to 29%; in the test with Puccinia triticina it was 57%; with Phakopsora pachyrhizi (Table D1, 7 days after inoculation, 0.05 ppm a.i.) it was 0%; in the test with Phakopsora pachyrhizi (Table D1, 7 days after inoculation, 0.1 ppm a.i.) it was 23%; in the test on Phakopsora pachyrhizi (Table D1, 7 days after inoculation, 0.2 ppm a.i.) it was 86%; with Phakopsora pachyrhizi (Table D2, 7 days after inoculation, 0.05 ppm a.i.) it was 0%. The “Efficacy in % found” value was 0% in the test with Phakopsora pachyrhizi (Table D2, 7 days after inoculation, 0.1 ppm a.i.); 23% with Phakopsora pachyrhizi (Table D2, 7 days after inoculation, 0.2 ppm a.i.); 0% with Phakopsora pachyrhizi (Table D3, 7 days after inoculation, 0.05 ppm a.i.); 0% in the test on Phakopsora pachyrhizi (Table D3, 7 days after inoculation, 0.1 ppm a.i.); 33% in test [1] (Table B1, 7 days after inoculation, 40 ppm a.i.); 0% in test [1] (Table B2, 7 days after inoculation, 10 ppm a.i.). Further, the “Efficacy in % found” value in test [1] (Table B2, 7 days after inoculation, 20 ppm a.i.) is 0%; in test [1] (Table B2, 7 days after inoculation, 40 ppm a.i.), 0%; in test [1] (Table B2, 7 days after inoculation, 80 ppm a.i.), 22%; with Pyrenophora teres, 29%; with Alternaria solani (Table A1, 3 days after inoculation, 0.5 ppm a.i.) it was 8%; with Alternaria solani (Table A1, 3 days after inoculation, 1 ppm a.i.) it was 15%. Also, the “Efficacy in % found” value with Alternaria solani (Table A2, 3 days after inoculation, 0.1 ppm a.i.) amounted to 0%; with Alternaria solani (Table A2, 3 days after inoculation, 0.2 ppm a.i.), 0%; in the test on Septoria tritici (Table G1, 21 days after inoculation, 20 ppm a.i.) it was 14%; with Septoria tritici (Table G1, 21 days after inoculation, 40 ppm a.i.) it was 14%; in the test on Septoria tritici (Table G2, 21 days after inoculation, 40 ppm a.i.), 0%; in the test on Septoria tritici (Table G2, 21 days after inoculation, 80 ppm a.i.) it was 0%.
